According to patent publication US20250282728A1, “NITROGEN COMPRISING HETEROCYCLIC DERIVATIVES FOR THE TREATMENT OF DISORDERS ASSOCIATED WITH GPR55 RECEPTOR” (Cerevance, Inc., priority 2022, published 2025):

Key:
rat GPR55 = biological target: T1, rat GPR55 (Rattus norvegicus, UniProt F1MAK4); test: Ca2+ mobilization assay (FLIPR, Calcium5 dye), rat GPR55; assay type: cell-based; details: HEK293 cells co-expressing PK-tagged rat GPR55 and EA-tagged beta-arrestin; intracellular calcium increase
T1 construct: expressed in transfected cells; host or cells: HEK293 (human embryonic kidney) cells
T1 sequence (F1MAK4 1-319): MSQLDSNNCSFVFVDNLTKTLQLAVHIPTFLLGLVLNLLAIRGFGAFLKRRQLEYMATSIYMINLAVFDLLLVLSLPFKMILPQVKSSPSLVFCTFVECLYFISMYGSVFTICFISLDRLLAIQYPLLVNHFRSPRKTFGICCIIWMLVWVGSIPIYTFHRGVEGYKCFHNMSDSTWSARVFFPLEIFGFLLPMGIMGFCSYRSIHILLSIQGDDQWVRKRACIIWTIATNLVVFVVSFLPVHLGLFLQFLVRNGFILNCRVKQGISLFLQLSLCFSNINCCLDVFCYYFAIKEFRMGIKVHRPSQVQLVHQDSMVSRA
Method: (§1) This cell-based assay measures the ability of compounds to activate the GPR55 receptor by measuring changes in intracellular calcium levels. HEK293 (human embryonic kidney) cells co-expressing recombinant ProLink (PK) tagged human or rat GPR55 and Enzyme Acceptor (EA) tagged beta-arrestin were seeded into PDL-coated, black-walled clear-bottom 384 well plates in assay buffer (25 mM HEPES, HBSS, 1 mM Probenicid, 0.1% BSA, pH 7.4) containing Calcium5 dye (Molecular Devices). Cells were incubated in suspension with the Calcium5 dye for 1 hour at 37° C., 5% CO2. Dilution series of the compounds in assay buffer were added to the cells in duplicate wells and compound-mediated real-time increases in intracellular calcium concentration were recorded as increased fluorescence using the Molecular Devices FLIPR instrument. Kinetic traces were reduced to a numerical value by subtracting the minimum response from the maximum response.

human GPR55 = biological target: T2, human GPR55 (Homo sapiens, UniProt Q9Y2T6); test: Ca2+ mobilization assay (FLIPR, Calcium5 dye), human GPR55; assay type: cell-based; details: HEK293 cells co-expressing PK-tagged human GPR55 and EA-tagged beta-arrestin; intracellular calcium increase
T2 construct: expressed in transfected cells; host or cells: HEK293 (human embryonic kidney) cells
Method: as §1

T2 sequence (Q9Y2T6 whole entry): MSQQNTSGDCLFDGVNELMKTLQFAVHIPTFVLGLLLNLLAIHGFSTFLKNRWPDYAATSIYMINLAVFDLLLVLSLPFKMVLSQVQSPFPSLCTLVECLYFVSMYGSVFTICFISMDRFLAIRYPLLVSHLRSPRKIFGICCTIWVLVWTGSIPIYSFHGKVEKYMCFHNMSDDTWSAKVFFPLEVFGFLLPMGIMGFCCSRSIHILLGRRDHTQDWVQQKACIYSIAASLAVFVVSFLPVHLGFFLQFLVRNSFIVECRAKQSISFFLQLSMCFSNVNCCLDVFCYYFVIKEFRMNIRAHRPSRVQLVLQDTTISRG

SMILES	EC50 (rat GPR55)	EC50 (human GPR55)
C[C@@H](Nc1ccc(-c2cncc(C3CC3)c2)cn1)c1ccc(F)cc1 [Example 5, (R)-5′-cyclopropyl-N-(1-(4-fluorophenyl)ethyl)-[3,3′-bipyridin]-6-amine]	≤ 1 µM	≤ 0.05 µM
Cc1cncc(-c2ccc(N[C@H](C)c3ccc(F)c(F)c3)nc2)c1 [Example 2, (R)-N-(1-(3,4-difluorophenyl)ethyl)-5′-methyl-[3,3′-bipyridin]-6-amine]	≤ 5 µM	≤ 0.05 µM
C[C@@H](Nc1cnc(-c2cncc(C=C(F)F)c2)cn1)c1ccc(F)cc1 [Example 34, (R)-5-(5-(2,2-difluorovinyl)pyridin-3-yl)-N-(1-(4-fluorophenyl)ethyl)pyrazin-2-amine]	≤ 1 µM	≤ 0.05 µM
C[C@@H](Nc1cnc(-c2cnc3oc(=O)n(C)c3c2)cn1)c1ccc(F)cc1 [Example 26, (R)-6-(5-((1-(4-fluorophenyl)ethyl)amino)pyrazin-2-yl)-1-methyloxazolo[5,4-b]pyridin-2(1H)-one]	≤ 5 µM	≤ 1 µM
CCc1cncc(-c2cnc(N[C@H](C)c3ccc(F)cc3)cn2)c1 [Example 17, (R)-5-(5-ethylpyridin-3-yl)-N-(1-(4-fluorophenyl)ethyl)pyrazin-2-amine]	≤ 1 µM	≤ 0.05 µM
C[C@@H](Nc1cnc(-c2cncc(C(O)C(F)(F)F)c2)cn1)c1ccc(F)cc1 (single isomer, unassigned) [Example 32b]	≤ 1 µM	≤ 0.05 µM
CC(O)c1cncc(-c2ccc(N[C@H](C)c3ccc(F)cc3)nc2)c1 (single isomer, unassigned) [Example 16b]	≤ 0.2 µM	≤ 0.05 µM
C[C@@H](Nc1cnc(-c2cncc(C(O)C(F)(F)F)c2)cn1)c1ccc(F)cc1 (mixture of isomers) [Example 32, 2,2,2-trifluoro-1-(5-(5-(((R)-1-(4-fluorophenyl)ethyl)amino)pyrazin-2-yl)pyridin-3-yl)ethan-1-ol]	≤ 0.05 µM	≤ 0.2 µM
C[C@@H](Nc1cnc(-c2cncc(S(C)(=O)=O)c2)cn1)c1ccc(F)cc1 [Example 18, (R)-N-(1-(4-fluorophenyl)ethyl)-5-(5-(methylsulfonyl)pyridin-3-yl)pyrazin-2-amine]	≤ 0.05 µM	≤ 0.05 µM
C[C@@H](Nc1cnc(-c2cncc([S+](C)[O-])c2)cn1)c1ccc(F)cc1 (stereo partly drawn) [Example 23, N-((R)-1-(4-fluorophenyl)ethyl)-5-(5-(methylsulfinyl)pyridin-3-yl)pyrazin-2-amine]	≤ 5 µM	≤ 1 µM
CC(O)c1cncc(-c2ccc(N[C@H](C)c3ccc(F)cc3)nc2)c1 (single isomer, unassigned) [Example 16a]	≤ 0.05 µM	≤ 1 µM
CCS(=O)(=O)c1cncc(-c2ccc(N[C@H](C)c3ccc(F)cc3)nc2)c1 [Example 15, (R)-5′-(ethylsulfonyl)-N-(1-(4-fluorophenyl)ethyl)-[3,3′-bipyridin]-6-amine]	≤ 1 µM	≤ 0.2 µM

Results, then the compound that gave them:

EC50 (rat GPR55)	EC50 (human GPR55)	SMILES
≤ 1 µM	≤ 0.05 µM	C#Cc1cncc(-c2ccc(N[C@H](C)c3ccc(F)cc3)nc2)c1 [Example 51, (R)-5′-ethynyl-N-(1-(4-fluorophenyl)ethyl)-[3,3′-bipyridin]-6-amine]
≤ 1 µM	≤ 0.2 µM	C[C@@H](Nc1ncc(-c2ccc3ocnc3c2)nn1)c1ccc(F)cc1 [Example 80, (R)-6-(benzo[d]oxazol-5-yl)-N-(1-(4-fluorophenyl)ethyl)-1,2,4-triazin-3-amine]
≤ 5 µM	≤ 5 µM	C[C@@H](Nc1ncc(-c2cnc3c(c2)ncn3C)nn1)c1ccc(F)cc1 [Example 83, (R)-N-(1-(4-fluorophenyl)ethyl)-6-(3-methyl-3H-imidazo[4,5-b]pyridin-6-yl)-1,2,4-triazin-3-amine]
≤ 1 µM	≤ 0.2 µM	C[C@@H](Nc1ncc(-c2cncc(CO)c2)nn1)c1ccc(F)cc1 [Example 41, (R)-(5-(3-((1-(4-fluorophenyl)ethyl)amino)-1,2,4-triazin-6-yl)pyridin-3-yl)methanol]
≤ 5 µM	≤ 1 µM	C=Cc1cc(-c2cnc(N[C@H](C)c3ccc(F)cc3)cn2)cnn1 [Example 44, (R)-N-(1-(4-fluorophenyl)ethyl)-5-(6-vinylpyridazin-4-yl)pyrazin-2-amine]
≤ 0.2 µM	≤ 0.2 µM	CSCn1c(=O)oc2ccc(-c3cnc(N[C@H](C)c4ccc(F)cc4)nn3)cc21 [Example 70, (R)-5-(3-((1-(4-fluorophenyl)ethyl)amino)-1,2,4-triazin-6-yl)-3-((methylthio)methyl)benzo[d]oxazol-2(3H)-one]
≤ 1 µM	≤ 1 µM	C[C@@H](Nc1cnc(-c2cncc(C(O)C(F)F)c2)cn1)c1ccc(F)cc1 (single isomer, unassigned) [Example 54b]
≤ 5 µM	≤ 0.05 µM	C[C@@H](Nc1cnc(-c2cnnc(CC(F)(F)F)c2)cn1)c1ccc(F)cc1 [Example 57, (R)-N-(1-(4-fluorophenyl)ethyl)-5-(6-(2,2,2-trifluoroethyl)pyridazin-4-yl)pyrazin-2-amine]
≤ 5 µM	≤ 1 µM	CCc1cncc(-c2ccc(N[C@H](C)c3ccc(C)cc3)nc2)c1 [Example 50, (R)-5′-ethyl-N-(1-(p-tolyl)ethyl)-[3,3′-bipyridin]-6-amine]
≤ 5 µM	≤ 5 µM	C[C@@H](Nc1ccc(-c2ccc3c(c2)N(C)C(=O)C3(F)F)cn1)c1ccc(F)cc1 [Example 79, (R)-3,3-difluoro-6-(6-((1-(4-fluorophenyl)ethyl)amino)pyridin-3-yl)-1-methylindolin-2-one]
≤ 5 µM	≤ 0.05 µM	C[C@@H](Nc1cnc(-c2cncc(CCO)c2)cn1)c1ccc(F)cc1 [Example 35, (R)-2-(5-(5-((1-(4-fluorophenyl)ethyl)amino)pyrazin-2-yl)pyridin-3-yl)ethan-1-ol]
≤ 1 µM	≤ 1 µM	CC(Nc1ncc(-c2ccc3oc(=O)n(C)c3c2)nn1)c1ccc(Cl)c(Cl)c1 (single isomer, unassigned) [Example 78a, 5-(3-((1-(3,4-dichlorophenyl)ethyl)amino)-1,2,4-triazin-6-yl)-3-methylbenzo[d]oxazol-2(3H)-one]
≤ 1 µM	≤ 1 µM	Cc1cc(C(C)Nc2ncc(-c3ccc4oc(=O)n(C)c4c3)nn2)ccc1F (single isomer, unassigned) [Example 77a, 5-(3-((1-(4-fluoro-3-methylphenyl)ethyl)amino)-1,2,4-triazin-6-yl)-3-methylbenzo[d]oxazol-2(3H)-one]
≤ 5 µM	≤ 0.05 µM	C[C@@H](Nc1cnc(-c2cnnc(C(O)C(F)(F)F)c2)cn1)c1ccc(F)cc1 (stereo partly drawn) [Example 58, 2,2,2-trifluoro-1-(5-(5-(((R)-1-(4-fluorophenyl)ethyl)amino)pyrazin-2-yl)pyridazin-3-yl)ethan-1-ol]
≤ 1 µM	≤ 1 µM	C[C@@H](Nc1ncc(-c2ccc3oc(=O)n(C)c3c2)nn1)c1ccc(F)c(F)c1 [Example 76, (R)-5-(3-((1-(3,4-difluorophenyl)ethyl)amino)-1,2,4-triazin-6-yl)-3-methylbenzo[d]oxazol-2(3H)-one]
≤ 5 µM	≤ 0.05 µM	C[C@@H](Nc1cnc(-c2cncc(OC(F)(F)F)c2)cn1)c1ccc(F)cc1 [Example 43, (R)-N-(1-(4-fluorophenyl)ethyl)-5-(5-(trifluoromethoxy)pyridin-3-yl)pyrazin-2-amine]
